Tests used:
[1] = target: SLY (Suilysin) (Streptococcus suis, UniProt Q55996); test: biochemical
[2] = target: the molecule itself; test: SDS-PAGE without beta-mercaptoethanol + Western blot of oligomers; purified SLO incubated with or without luteolin at different concentrations, 37°C for 30 min; then 40°C for 10 min in 1x SDS-PAGE loading buffer without β-ME; blot with rabbit polyclonal anti-Streptolysin O; oligomer/monomer ratio by densitometry

Sequence of SLY (Suilysin) (Q55996 28-497 limits assumed): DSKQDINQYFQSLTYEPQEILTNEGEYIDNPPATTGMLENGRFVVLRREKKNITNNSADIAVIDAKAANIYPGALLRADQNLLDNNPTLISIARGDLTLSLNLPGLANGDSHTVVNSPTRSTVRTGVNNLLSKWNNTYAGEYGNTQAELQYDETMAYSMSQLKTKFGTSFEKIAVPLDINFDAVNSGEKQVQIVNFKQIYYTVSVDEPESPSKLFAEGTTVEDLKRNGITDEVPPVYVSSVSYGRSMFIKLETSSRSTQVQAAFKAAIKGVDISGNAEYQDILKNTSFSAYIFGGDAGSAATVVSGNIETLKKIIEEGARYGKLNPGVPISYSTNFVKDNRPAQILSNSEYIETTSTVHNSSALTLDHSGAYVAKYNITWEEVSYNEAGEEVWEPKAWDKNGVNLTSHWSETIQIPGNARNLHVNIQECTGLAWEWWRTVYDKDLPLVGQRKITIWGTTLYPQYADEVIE

O=c1cc(-c2ccc(O)c(O)c2)oc2cc(O)cc(O)c12 [Luteolin]
Kd [1]: 554 nM

B1: Streptolysin O (natural protein, UniProt P0C0I3 78-571, looked up)
chain: LAPKEMPLESAEKEEKKSEDKKKSEEDHTEEINDKIYSLNYNELEVLAKNGETIENFVPKEGVKKADKFIVIERKKKNINTTPVDISIIDSVTDRTYPAALQLANKGFTENKPDAVVTKRNPQKIHIDLPGMGDKATVEVNDPTYANVSTAIDNLVNQWHDNYSGGNTLPARTQYTESMVYSKSQIEAALNVNSKILDGTLGIDFKSISKGEKKVMIAAYKQIFYTVSANLPNNPADVFDKSVTFKELQRKGVSNEAPPLFVSNVAYGRTVFVKLETSSKSNDVEAAFSAALKGTDVKTNGKYSDILENSSFTAVVLGGDAAEHNKVVTKDFDVIRNVIKDNATFSRKNPAYPISYTSVFLKNNKIAGVNNRTEYVETTSTEYTSGKINLSHQGAYVAQYEILWDEINYDDKGKEVITKRRWDNNWYSKTSPFSTVIPLGANSRNIRIMARECTGLAWEWWRKVIDERDVKLSKEINVNISGSTLSPYGSITYK
notes: Streptolysin O of Group A Streptococcus (Streptococcus pyogenes), amplified from DNA of GAS strain M1; After the BamHI site the forward primer encodes LAPKEMP; The reverse primer runs to the natural stop codon (...YGSITYK-stop); Surmise: cloning into the BamHI/SacI sites of pET28a with the gene's own stop codon would give an N-terminal His6-thrombin site-T7 tag leader; also called SLO; SLO protein
binding result [2]: binds

Reference: publication PMC9300923 (Frontiers in Pharmacology, 2022)
